Measured values taken from patent US5453439A, “Hydroxylamine derivatives” (Zeneca Limited, priority 1992, dated 1995).

Key:
5-LO = target: T1, 5-LO (Homo sapiens, UniProt P09917); test: Test a) in vitro heparinised human blood, A23187 challenge, LTB4 radioimmunoassay (indirect inhibition of 5-LO); type: cell-based
T1 construct: incubating a test compound with heparinised human blood; endogenous in cells; host or cells: heparinised human blood (blood cells; A23187 challenge)
T1 sequence (P09917 1-674): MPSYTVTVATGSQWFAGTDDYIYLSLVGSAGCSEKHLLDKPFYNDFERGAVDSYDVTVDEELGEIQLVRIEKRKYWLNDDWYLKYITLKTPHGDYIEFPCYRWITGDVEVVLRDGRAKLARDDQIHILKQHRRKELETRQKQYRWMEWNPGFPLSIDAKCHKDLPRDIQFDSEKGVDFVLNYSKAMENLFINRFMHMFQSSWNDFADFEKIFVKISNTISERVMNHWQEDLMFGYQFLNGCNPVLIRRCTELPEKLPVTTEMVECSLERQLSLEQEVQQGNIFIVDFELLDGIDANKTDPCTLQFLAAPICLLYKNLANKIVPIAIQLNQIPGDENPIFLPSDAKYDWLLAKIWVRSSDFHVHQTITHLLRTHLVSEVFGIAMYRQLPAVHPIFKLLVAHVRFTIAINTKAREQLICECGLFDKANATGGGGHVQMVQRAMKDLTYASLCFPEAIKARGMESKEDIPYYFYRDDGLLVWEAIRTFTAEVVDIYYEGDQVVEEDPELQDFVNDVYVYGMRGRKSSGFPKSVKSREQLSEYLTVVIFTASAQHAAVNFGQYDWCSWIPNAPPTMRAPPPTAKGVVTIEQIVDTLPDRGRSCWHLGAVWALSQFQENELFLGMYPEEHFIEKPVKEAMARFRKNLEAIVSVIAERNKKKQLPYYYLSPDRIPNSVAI
Experimental: a) An in vitro assay system involving incubating a test compound with heparinised human blood, prior to challenge with the calcium ionophore A^23187 and then indirectly measuring the inhibitory effects on 5-LO by assaying the amount of LTB4 using specific radioimmunoassays described by Carey and Forder (Prostaglandins, Leukotrienes Med., 1986, 22, 57; Prostaglandins, 1984, 28, 666; Brit. J. Pharmacol., 1985, 84, 34P) which involves the use of a protein-LTB4 conjugate produced using the procedure of Young et alia (Prostaglandins, 1983, 26(4), 605-613). The effects of a test compound on the enzyme cyclooxygenase (which is involved in the alternative metabolic pathway for arachidonic acid and gives rise to prostaglandins, thromboxanes and related metabolites) may be measured at the same time using the specific radioimmunoassay for thromboxane B2 (TxB2) described by Carey and Forder (see above). This test provides an indication of the effects of a test compound against 5-LO and also cyclooxygenase in the presence of blood cells and proteins. It permits the selectivity of the inhibitory effect on 5-LO or cyclooxygenase to be assessed.

[1] = system: LTB4 liberation induced by zymosan (5-LO); test: Test c) in vivo zymosan-induced LTB4 liberation in rat subcutaneous air pouch, oral administration; settings: 3 h; test c)
Experimental: c) An in vivo system involving measuring the effects of a test compound administered orally against the liberation of LTB4 induced by zymosan within an air pouch generated within the subcutaneous tissue of the back of male rats. The rats are anaesthetised and air pouches are formed by the injection of sterile air (20 ml). A further injection of air (10 ml) is similarly given after 3 days. At 6 days after the initial air injection the test compound is administered (usually orally as the suspension produced when a solution of the test compound in dimethylsulphoxide is added to hydroxypropylmethylcellulose), followed by the intrapouch injection of zymosan (1 ml of a 1% suspension in physiological saline). After 3 hours the rats are killed, the air pouches are lavaged with physiological saline, and the specific radioimmunoassay described above is used to assay LTB4 in the washings. This test provides an indication of inhibitory effects against 5-LO in an inflammatory milieu.

SMILES: COC1(c2cc(F)cc(Sc3ccc(C(C)N(OC(C)=O)C(C)=O)cc3)c2)CCOCC1 (stereo not drawn) [O-acetyl-N-{4-[5-fluoro-3-(4-methoxytetrahydropyran-4-yl)phenylthio]-α-methylbenzyl}acetohydroxamic acid]
- IC50 (5-LO): 150 nM
- ED50 [1]: ~0.5 mg/kg

SMILES: COC1(c2cc(F)cc(Sc3ccc(C(C)N(O)C(N)=O)cc3)c2)CCOCC1 (stereo not drawn) [N-{4-[5-fluoro-3-(4-methoxytetrahydropyran-4-yl)phenylthio]-α-methylbenzyl)-N-hydroxyurea]
- IC50 (5-LO): 570 nM
- ED50 [1]: ~0.5 mg/kg

SMILES: CONC(C)c1ccc(Sc2cc(F)cc(C3(OC)CCOCC3)c2)cc1 (stereo not drawn) [N-{4-[5-fluoro-3-(4-methoxytetrahydropyran-4-yl)phenylthio]-α-methylbenzyl}-O-methylhydroxylamine]
- IC50 (5-LO): 40 nM
- ED50 [1]: ~0.5 mg/kg
